Measurements taken from patent publication US20240254135A1, “POLYPHENOL COMPOUNDS” (Epirium Bio Inc., priority 2022, published 2024).

Target: T1, mitochondrial ATP synthase (Mus musculus, UniProt P56480+Q03265)
T1 construct: from tissue; host or cells: mouse heart, isolated mitochondria (fresh or frozen)
Test: ATP hydrolysis (proton release/ECAR, Seahorse XF96) in fresh heart mitochondria
Assay type: biochemical
Settings: for changes in ATP hydrolysis: fresh heart mitochondria (FIG. 1, FIG. 2)
Excerpt: To assess whether the fraction of synthetic and reverse hydrolytic activities of mitochondrial ATP synthase can be measured in the same preparation, a protocol was developed to monitor changes in oxygen consumption and proton release in response to changes in mitochondrial ATP synthase activity. The proton released and the concomitant changes in the pH can be monitored using the ECAR (extracellular acidification) channel in the Agilent Seahorse XF analyzer using isolated mitochondria, to ensure that the changes in pH cannot be attributed to glycolysis or other contributors to ECAR.
Mice were anesthetized with isoflurane followed by a cervical dislocation, and the heart was immediately removed and placed in ice cold relaxation buffer (5 mM sodium pyrophosphate, 100 mM KCl, 5 mM EGTA, 5 mM HEPES; pH 7.4). The heart was squeezed with tweezers to remove blood, minced with scissors, and then placed in a glass-glass Dounce homogenizer with 3 mL of HES homogenization buffer (250 mM sucrose, 5 mM HEPES, 1 mM EDTA; pH to 7.2, adjusted with KOH). The heart tissue was homogenized first with the loose pestle and followed by the tight pestle. The homogenized tissue was placed in a pre-chilled 15 ml conical tube and centrifuged at 900×g (4° C.) for 10 minutes (min). The supernatant was removed, placed in a new tube and centrifuged again at 900×g for 10 min. The supernatant was then transferred to 2 mL microcentrifuge tubes and centrifuged at 10,000×g (4° C.) for 10 min. The mitochondrial pellets were re-suspended in ice cold HES buffer and mitochondrial protein was measured with a BCA assay (Pierce). The concentrated mitochondrial pellet was stored on ice.
Heart mitochondria (0.75-1.5 μg) were loaded into a Seahorse XF96 microplate in 20 μL of MAS (70 mM Sucrose, 220 mM Mannitol, 5 mM KH2PO4, 5 mM MgCl2, 1 mM EGTA, 2 mM HEPES; pH 7.2) plus 1% free fatty acid BSA containing substrates. The loaded plate was centrifuged at 2,000×g for 5 min at 4° C. (no brake) and an additional 130 μL of MAS was added to each well. When assessing compounds effect on respirometry, the compounds were added at this point at the indicated concentration in MAS buffer. To avoid disrupting mitochondrial adherence to the bottom of the plate, MAS was added using a multichannel pipette pointed at a 45° angle to the top of the well-chamber, as instructed by the manufacturer. Substrate concentrations in the well when assay was starting in state 4 were as follow: (i) 5 mM pyruvate+5 mM malate or ii) 5 mM succinate+2 μM rotenone. Substrate concentrations in the well when assay was starting in state 3 were as follow: (i) 5 mM pyruvate+5 mM malate+4 mM ADP or ii) 5 mM succinate+2 μM rotenone+4 mM ADP. Injections were performed as indicated in the figure descriptions at the following final concentration in the well: oligomycin (3.5 μM), FCCP (4 μM), Antimycin A (2 μM). Compounds were added at the indicated concentration.
ATP hydrolysis capacity or state 4 acidification was measured using Seahorse XF96 as described in Divakaruni et al. (2018) Anal Biochem 552:60-65 and Acin-Perez et al. (2021) Life 11(9):949, in MAS (70 mM Sucrose, 220 mM Mannitol, 5 mM KH2PO4, 5 mM MgCl2, 1 mM EGTA, 2 mM HEPES; pH 7.2). Plates were loaded with 0.75-1.5 μg of mouse heart mitochondria, or 25 μg of cell lysate. Cell lysates were prepared by subjecting the samples to 4 cycles of free thaw (liquid nitrogen—37° C. water bath) before measuring protein concentration. When assessing compounds effect on respirometry, the compounds were added in MAS after sample centrifugation. Initial respiration of the samples was sustained by the addition of 5 mM succinate+2 μM rotenone in the MAS after centrifugation. Injections were performed at the following final concentration in the well: Antimycin A (2 μM), oligomycin (5 μM), FCCP (1 μM), ATP (20 mM). To assess maximal ATP concentration, ATP was injected consecutively. […]

| changes in ATP hydrolysis | decrease in hydrolysis (fresh mitochondria, Complex II) [%] | SMILES | decrease in hydrolysis (mitochondria preparation and substrate not given) | change in hydrolysis (fresh mitochondria, Complex I) |
| --- | --- | --- | --- | --- |
| – | – | Oc1cc(O)c2c(c1)O[C@H](c1ccc(O)c(O)c1)[C@H](O)C2 [Epicatechin, (+)Epicatechin, reference compound] | 10-25% | – |
| very mild changes | – | COc1cc(C2Oc3ccccc3CC2O)ccc1F (single isomer, unassigned) [Compound 75b, 2-(4-fluoro-3-methoxyphenyl)chroman-3-ol] | – | – |
| very mild changes | 20 | Oc1ccc2c(c1)OC(c1ccc(O)c(C(F)(F)F)c1)C(O)C2 (single isomer, unassigned) [Compound 77b, 2-(4-hydroxy-3-(trifluoromethyl)phenyl)chromane-3,7-diol] | – | no clear change |
